Test results taken from ChEMBL document CHEMBL5154694, “Fascaplysin derivatives binding to DNA via unique cationic five-ring coplanar backbone showed potent antimicrobial/antibiofilm activity against MRSA in vitro and in vivo” (Eur J Med Chem, 2022).
Active and inactive are the calls of the source. The calls are words filed in the database; no cut-off is given here.

Tests used:
[1] = tested on: Staphylococcus aureus; experiment: Antibacterial activity against methicillin-resistant Staphylococcus aureus ATCC 4330 after 16 to 18 hrs by microbroth dilution method; format: functional; settings: time 16-18 hrs
[2] = tested on: Staphylococcus aureus; experiment: Induction of membrane morphological changes in methicillin-resistant Staphylococcus aureus ATCC 4330 assessed as permeable cells at 1 to 4X MIC measured after 30 to 120 mins by propidium iodide staining based flow cytometry assay; format: functional; settings: time 30-120 min
[3] = tested on: Staphylococcus aureus; experiment: Induction of membrane morphological changes in methicillin-resistant Staphylococcus aureus ATCC 4330 assessed as visible cell filaments at 4X MIC after 2 hrs by scanning electron microscopy; format: functional
[4] = tested on: Staphylococcus aureus; experiment: Bactericidal activity against methicillin-resistant Staphylococcus aureus ATCC 4330 assessed as reduction in bacterial counts at 4X MIC by time-kill kinetic assay; format: functional, organism-based
[5] = tested on: Staphylococcus aureus; experiment: Bactericidal activity against methicillin-resistant Staphylococcus aureus ATCC 4330 assessed as inhibition of bacterial regrowth at 2X MIC after 24 hrs by time-kill kinetic assay; format: functional, organism-based
[6] = tested on: Staphylococcus aureus; experiment: Induction of membrane morphological changes in methicillin-resistant Staphylococcus aureus ATCC 4330 assessed as visible cell wall fragments at 4X MIC after 2 hrs by transmission electron microscopy; format: functional
[7] = tested on: DNA; experiment: Inhibition of methicillin-resistant Staphylococcus aureus ATCC 4330 genomic DNA migration at 3.125 to 6.25 ug/ml measured by electrophoretic mobility assay; format: nucleic-acid assay; settings: dose 3.125-6.25 µg/ml
[8] = tested on: Staphylococcus aureus; experiment: Induction of membrane morphological changes in methicillin-resistant Staphylococcus aureus ATCC 4330 assessed as visible cell membrane disruption at 4X MIC after 2 hrs by transmission electron microscopy; format: functional
[9] = tested on: Staphylococcus aureus; experiment: Induction of membrane morphological changes in methicillin-resistant Staphylococcus aureus ATCC 4330 assessed as ghost cells at 4X MIC after 2 hrs by transmission electron microscopy; format: functional
[10] = tested on: Staphylococcus aureus; experiment: Induction of membrane morphological changes in methicillin-resistant Staphylococcus aureus ATCC 4330 assessed as visible cell surface wrinkles at 4X MIC after 2 hrs by scanning electron microscopy; format: functional
[11] = tested on: DNA; experiment: Binding affinity to methicillin-resistant Staphylococcus aureus ATCC 4330 DNA assessed as induction of confirmational changes at 50 ug/ml measured by Circular dichroism assay; format: nucleic-acid assay; settings: dose 50.0 µg/ml
[12] = tested on: Staphylococcus aureus; experiment: Bactericidal activity against methicillin-resistant Staphylococcus aureus ATCC 4330 assessed as reduction in bacterial counts at 2X MIC within 0.5 hrs by time-kill kinetic assay; format: functional
[13] = tested on: Staphylococcus aureus; experiment: Bactericidal activity against methicillin-resistant Staphylococcus aureus ATCC 4330 assessed as reduction in bacterial counts at 1 to 4X MIC within 24 hrs by time-kill kinetic assay; format: functional
[14] = Cytotoxicity against mouse RAW264.7 cells assessed as cell survival at 25 ug/ml incubated for 24 hrs by CCK-8 assay; format: toxicity, cell-based; settings: at 25 µg/mL, read-out: Activity
[15] = Toxicity in female ICR peritonitis mouse model infected with methicillin-resistant Staphylococcus aureus ATCC 4330 assessed as liver damage at 10 mg/kg, ip; format: organism-based; settings: in vivo
[16] = tested on: Staphylococcus aureus; experiment: Antibiofilm activity against methicillin-resistant Staphylococcus aureus ATCC 4330 assessed as inhibition of biofilm formation at 1.56 ug/ml after 24 hrs by crystal violet staining based assay relative to control; format: functional
[17] = tested on: Staphylococcus aureus; experiment: Antimicrobial activity against methicillin-resistant Staphylococcus aureus ATCC 4330 infected in female ICR peritonitis mouse model assessed as survival time of mouse at 10 mg/kg, ip; format: functional
[18] = tested on: Staphylococcus aureus; experiment: Antimicrobial activity against methicillin-resistant Staphylococcus aureus ATCC 4330 infected in female ICR peritonitis mouse model assessed as increase in survival rate of mouse at 10 mg/kg, ip; format: functional
[19] = Hemolytic activity in mouse erythrocytes assessed as hemolysis at 12.5 ug/ml relative to control; format: toxicity, cell-based, Erythrocyte; settings: at 12.5 µg/mL, read-out: Activity
[20] = tested on: Staphylococcus aureus; experiment: Induction of membrane morphological changes in methicillin-resistant Staphylococcus aureus ATCC 4330 assessed as fluorescent intensity at 1 to 4X MIC measured after 30 to 120 mins by propidium iodide staining based flow cytometry assay; format: functional; settings: time 30-120 min
[21] = Toxicity in female ICR peritonitis mouse model infected with methicillin-resistant Staphylococcus aureus ATCC 4330 assessed as kidney damage at 10 mg/kg, ip; format: organism-based; settings: in vivo
[22] = tested on: Staphylococcus aureus; experiment: Antibiofilm activity against methicillin-resistant Staphylococcus aureus ATCC 4330 assessed as fold change in upregulation of AgrA mRNA expression at 4X MIC after 2 hrs by qRT-PCR assay; format: functional
[23] = Cytotoxicity against mouse RAW264.7 cells assessed as cell survival at 12.5 ug/ml incubated for 24 hrs by CCK-8 assay; format: toxicity, cell-based; settings: at 12.5 µg/mL, read-out: Activity
[24] = Cytotoxicity against mouse RAW264.7 cells assessed as cell survival at 50 ug/ml incubated for 24 hrs by CCK-8 assay; format: toxicity, cell-based; settings: at 50 µg/mL, read-out: Activity
[25] = Toxicity in female ICR peritonitis mouse model infected with methicillin-resistant Staphylococcus aureus ATCC 4330 assessed as lung damage at 10 mg/kg, ip; format: organism-based; settings: in vivo
[26] = tested on: Staphylococcus aureus; experiment: Antimicrobial activity against methicillin-resistant Staphylococcus aureus ATCC 4330 infected in female ICR peritonitis mouse model assessed as reduction in bacteria in blood at 10 mg/kg, ip; format: functional
[27] = tested on: Staphylococcus aureus; experiment: Antibiofilm activity against methicillin-resistant Staphylococcus aureus ATCC 4330 assessed as inhibition of biofilm formation at 50 ug/ml after 24 hrs by crystal violet staining based assay relative to control; format: functional
[28] = tested on: Staphylococcus aureus; experiment: Antibiofilm activity against methicillin-resistant Staphylococcus aureus ATCC 4330 assessed as fold change in downregulation of AgrA mRNA expression at 4X MIC after 2 hrs by qRT-PCR assay; format: functional

Structure (SMILES): O=C(O)c1ccc2[nH]c3c(C(=O)c4ccccc4Br)nccc3c2c1
- MIC [1]: > 200 µg/mL

Structure (SMILES): CCCCNC(=O)c1ccc2[nH]c3c(C(=O)c4ccccc4Br)nccc3c2c1
- MIC [1]: > 200 µg/mL

Structure (SMILES): Cc1ccc2[nH]c3c(C(=O)c4ccccc4Br)nccc3c2c1
- MIC [1]: > 200 µg/mL

Structure (SMILES): Cc1ccc2[nH]c3c4[n+](ccc3c2c1)-c1ccccc1C4=O
- Activity [2]: 1.11%
- Activity [3]: Active
- Activity [4]: Active
- Activity [5]: Active
- Activity [6]: Active
- inhibition of DNA migration [7]: Active
- Activity [8]: Active
- Activity [9]: Active
- Activity [10]: Active
- Activity [11]: Active

Structure (SMILES): O=C(c1ccccc1Cl)c1nccc2c1[nH]c1ccccc12
- MIC [1]: > 200 µg/mL

Structure (SMILES): CCCCNC(=O)c1ccc2[nH]c3c4[n+](ccc3c2c1)-c1ccccc1C4=O.[Br-]
- MIC [1]: 6.25 µg/mL
- Activity [4]: Active
- Activity [5]: Active
- Activity [12]: 0.5 log10CFU/ml
- Activity [13]: 2 log10CFU/ml

Structure (SMILES): O=C(O)c1ccc2[nH]c3c4[n+](ccc3c2c1)-c1ccccc1C4=O.[Br-]
- MIC [1]: 6.25 µg/mL
- Activity [4]: Active
- Activity [12]: 0 log10CFU/ml
- Activity [13]: 2 log10CFU/ml

Structure (SMILES): NC(=O)c1ccc2[nH]c3c(C(=O)c4ccccc4Br)nccc3c2c1
- MIC [1]: > 200 µg/mL

Structure (SMILES): O=C(c1ccccc1Br)c1nccc2c1[nH]c1ccc(Br)cc12
- MIC [1]: > 200 µg/mL

Structure (SMILES): O=C1c2ccccc2-[n+]2ccc3c([nH]c4ccc(Br)cc43)c21.[Br-]
- viability at 24 h, 25 ug/ml [14]: 86.5%
- Activity [3]: Active
- MIC [1]: 0.098 µg/mL
- Activity [15]: Non-Toxic
- Activity [4]: Active
- inhibition at 1.56 µg/mL [16]: 74.9%
- Survival [17]: 2 days
- Activity [18]: 20%
- hemolysis at 12.5 ug/ml [19]: 0%
- Activity [20]: 19.3%
- Activity [5]: Active
- Activity [6]: Active
- Activity [21]: Non-Toxic
- Activity [12]: 2.4 log10CFU/ml
- inhibition of DNA migration [7]: Active
- fold change (FC) [22]: 2.12
- Activity [8]: Active
- Activity [9]: Active
- viability at 24 h, 12.5 ug/ml [23]: 72.3%
- viability at 24 h, 50 ug/ml [24]: 92.9%
- Activity [10]: Active
- Activity [25]: Non-Toxic
- Activity [26]: Active
- Activity [11]: Active
- Activity [13]: 2 log10CFU/ml

Structure (SMILES): CN[C@H](CC(C)C)C(=O)N[C@H]1C(=O)N[C@@H](CC(N)=O)C(=O)N[C@H]2C(=O)N[C@H]3C(=O)N[C@H](C(=O)N[C@H](C(=O)O)c4cc(O)cc(O)c4-c4cc3ccc4O)[C@H](O)c3ccc(c(Cl)c3)Oc3cc2cc(c3O[C@@H]2O[C@H](CO)[C@@H](O)[C@H](O)[C@H]2O[C@H]2C[C@](C)(N)[C@H](O)[C@H](C)O2)Oc2ccc(cc2Cl)[C@H]1O [VANCOMYCIN]
- Activity [4]: Active
- Activity [12]: 0.1 log10CFU/ml
- Activity [13]: 2 log10CFU/ml

Structure (SMILES): Cc1ccc2[nH]c3c(C(=O)c4ccccc4Cl)nccc3c2c1
- MIC [1]: > 200 µg/mL

Structure (SMILES): O=C1c2ccccc2-[n+]2ccc3c([nH]c4ccccc43)c21
- Activity [2]: 1.11%
- Activity [3]: Active
- Activity [4]: Active
- Activity [5]: Active
- Activity [6]: Active
- inhibition of DNA migration [7]: Active
- Activity [8]: Active
- Activity [9]: Active
- Activity [10]: Active
- Activity [26]: Active
- Activity [11]: Active

Structure (SMILES): NC(=O)c1ccc2[nH]c3c4[n+](ccc3c2c1)-c1ccccc1C4=O.[Br-]
- MIC [1]: 200 µg/mL

Structure (SMILES): O=C1c2ccccc2-[n+]2ccc3c([nH]c4ccccc43)c21.[Br-]
- inhibition at 50 µg/mL [27]: 27.4%
- viability at 24 h, 25 ug/ml [14]: 100%
- MIC [1]: 0.39 µg/mL
- Activity [15]: Non-Toxic
- Survival [17]: 2 days
- Activity [18]: 20%
- hemolysis at 12.5 ug/ml [19]: 0%
- Activity [21]: Non-Toxic
- Activity [12]: 0 log10CFU/ml
- fold change (FC) [22]: 1.67
- viability at 24 h, 12.5 ug/ml [23]: 91.7%
- viability at 24 h, 50 ug/ml [24]: 100%
- Activity [25]: Non-Toxic
- Activity [13]: 2 log10CFU/ml

Structure (SMILES): O=C(c1ccccc1Br)c1nccc2c1[nH]c1ccccc12
- MIC [1]: > 200 µg/mL

Structure (SMILES): O=C(Nc1cccc2ccccc12)c1ccc2[nH]c3c4[n+](ccc3c2c1)-c1ccccc1C4=O.[Br-]
- Activity [3]: Active
- MIC [1]: 0.098 µg/mL
- Activity [15]: Non-Toxic
- Activity [4]: Active
- inhibition at 1.56 µg/mL [16]: 78.9%
- Survival [17]: 2 days
- Activity [18]: 20%
- hemolysis at 12.5 ug/ml [19]: 0%
- Activity [20]: 19.3%
- Activity [5]: Active
- Activity [6]: Active
- Activity [21]: Non-Toxic
- Activity [12]: 1.9 log10CFU/ml
- inhibition of DNA migration [7]: Active
- Activity [8]: Active
- Activity [9]: Active
- viability at 24 h, 50 ug/ml [24]: 98.4%
- Activity [10]: Active
- fold change (FC) [28]: 0.1
- Activity [25]: Non-Toxic
- Activity [26]: Active
- Activity [11]: Active
- Activity [13]: 2 log10CFU/ml

Structure (SMILES): O=C(Nc1cccc2ccccc12)c1ccc2[nH]c3c(C(=O)c4ccccc4Br)nccc3c2c1
- MIC [1]: > 200 µg/mL

Structure (SMILES): Cc1ccc2[nH]c3c4[n+](ccc3c2c1)-c1ccccc1C4=O.[Cl-]
- MIC [1]: 0.78 µg/mL
- Activity [12]: 0.1 log10CFU/ml
- Activity [13]: 2 log10CFU/ml
